{"source": "patent US20130217094A1", "about": "“ENZYME SOLUTION FOR SEPARATING CELL, METHOD FOR SEPARATING CELL AND METHOD FOR SEPARATING PANCREATIC ISLET” (BIO LINK, INCORPORATED, priority 2010, published 2013)", "key": {"[1]": {"tested_on": "pancreatic islets", "assay": "Separation of pancreatic islets from rats with the enzyme solution: yield of pancreatic islets", "format": "cell-based", "settings": "per rat, n=8; collagenase (2 mg/mL) Hanks' solution infused via pancreatic duct, 37° C. 32 minutes; DIDS 200 μM or NaCl substituted with sodium glutamate", "description": "The rats were grouped into three groups (a control group, a DIDS group, a low Cl^− group) each including 8 rats, then abdominal section was carried out to each rat under ether anesthesia, the choledoch duct was clamped in the vicinity of the entrance of the duodenum, and cannula was inserted. Then, 12 mL of Hanks' solution (NaCl: […], KCl: 400 mg/mL, MgSG4: 48.8 mg/mL, MgCl2: 46.8 mg/mL, CaCl2: 140 mg/mL, KH2PO4: 60 mg/mL, Na HPO4: 47.9 mg/mL and glucose: 1000 mg/mL) containing collagenase (2 mg/mL) was infused into the pancreas via the pancreatic duct from the cannula. However, to the DIDS group, DIDS (200 μM) as a chloride ion channel inhibitor was further added, and to the low Cl^− group, sodium chloride in the Hanks' solution was substituted with sodium glutamate.\nThe pancreas that had been swollen by infusion of the solution was extracted, and incubated at 37° C. for 32 minutes. Thereafter, degraded tissue was placed into 50 mL conical tube, and the Hanks' solution at 4° C. was added so as to stop the enzyme reaction. The tube was gently shaken, and subjected to centrifugation at 320G for 10 to 15 seconds. […]\nFor the yield of the pancreatic islets, IEQ (islet equivalents; the number of pancreatic islets based on the diameter of 150 μm) as a unit is used. […] Note here that the number of pancreatic islets whose diameter was less than 50 μm was not counted."}, "[2]": {"tested_on": "pancreatic islets", "assay": "Evaluation of damages in pancreatic islets (AO/PI staining, viability)", "format": "cell-based, rats", "settings": "AO/PI fluorescence area, n=8 in each group; islets separated in Example 1", "description": "The degree of damage of pancreatic islets can be evaluated based on whether or not a barrier function of the cell membrane can be maintained. Then, the pancreatic islets of each group separated in Example 1 (n=8 in each group) was stained with acridine orange (AO) and propidium iodide as fluorescent dye. Note here that AO is taken in cells even in living cells to emit green fluorescence, and PI is taken into cells by failure of the barrier function of the cell membrane and bound to DNA to emit red fluorescence. Specifically, AO (10 μM) and PI (15 μM) were dissolved in PBS to form a solution, the pancreatic islets were incubated in the resultant solution for 10 minutes, and then the pancreatic islets were observed under fluorescence microscope. Then, by using image analysis software (Image J free software), an area of the green fluorescence and an area of the red fluorescence were obtained, the rate (%) of the area of green fluorescence excluding the area of the red fluorescence was defined as the viability (%) of pancreatic islet."}, "[3]": {"tested_on": "pancreatic islets", "assay": "Secretion of insulin by glucose stimulation (ELISA)", "format": "cell-based, rats", "settings": "60 minutes, islets 150 to 200 μm, n=10", "description": "As a medium, RPMI1640 medium containing 3.3 mM glucose and 0.1% fetal bovine serum was used, and conditions were set at 37° C. and in 5% CO2/95% air condition. In measurement, the Transwell medium on which pancreatic islets were placed was subjected to RPMI1640 medium containing 3.3 mM glucose and 0.1% fetal bovine serum, and pre-cultured for 60 minutes. Note here that the culture was carried out at 37° C. and in 5% CO2/95% air conditions. Thereafter, the Transwell medium on which pancreatic islets were placed was moved to a new well containing the similar medium and stood still for 60 minutes (sample A). […] Thereafter, the media of the sample A and the sample B were recovered, and insulin contained in the medium was measured by using an insulin measurement kit (manufactured by Morinaga Biochemical Lab, Inc.) using the ELISA method. Then, the value obtained by dividing the insulin level of the sample B by the insulin level of the sample A was defined as an insulin secretion stimulation index."}, "[4]": {"tested_on": "diabetes model SCID mice", "assay": "Transplantation of pancreatic islets to diabetes model SCID mice", "format": "in vivo", "description": "Note here that in the following Examples, rats at an age of 9 to 10 weeks were used as a donor of the pancreatic islets. Furthermore, as a recipient, SCID mice at an age of 9 to 10 weeks were used. Streptozocin (STZ; 250 mg/kg) was intraperitoneally administered to SCID mice under anesthesia of diethyl ether, and β cells were destroyed to induce diabetes. Mice whose casual blood glucose level exceeds 350 mg/dL for two continuous days were regarded as diabetes mice, and they were used as the recipients. […] For the screening of the diabetes model SCID mice, mice whose casual blood glucose level exceeds 350 mg/dL for two continuous days by collection of blood were employed. In transplantation, the mice were subjected to ether anesthesia, and pancreatic islet was infused into the renicapsule of the left kidney by using a 250 μL pipette tip. After transplantation, the blood was recovered every day for the first seven days, and the blood glucose level was measured, and thereafter, the blood glucose level was measured three times a week. Then, on Day 30 after transplantation, the pancreatic islet-transplanted kidney was extracted. Note here that the definition of cure of diabetes was a case in which the blood glucose level was less than 150 mg/dL for three continuous days and the blood glucose level after nephrectomy was increased to more than 250 mg/dL."}}, "data": [{"smiles": "O=S(=O)([O-])c1cc(N=C=S)ccc1C=Cc1ccc(N=C=S)cc1S(=O)(=O)[O-].[Na+].[Na+]", "note": "[DIDS, 4,4′-di(isothiocyano)stilbene-2,2′-disodium disulfonate]", "values": [{"measurement": "yield of the pancreatic islets", "setting": "[1]", "result": "1969±244", "unit": "IEQ"}, {"measurement": "viability of the pancreatic islets", "setting": "[2]", "result": "84.9±4.9", "unit": "%"}, {"measurement": "insulin secretion sample A (3.3 mM glucose)", "setting": "[3]; 3.3 mM glucose", "result": "1.94 ± 0.44", "unit": "μU"}, {"measurement": "insulin secretion sample B (20 mM glucose)", "setting": "[3]; 20 mM glucose", "result": "19.0 ± 4.46", "unit": "μU"}, {"measurement": "blood glucose level on Day 1 to 2 after the transplantation", "setting": "[4]; 200 IEQ islets transplanted to renicapsule of left kidney, STZ diabetes SCID mice, n=5", "result": "78.7 ± 52.7", "unit": "mg/dL"}, {"measurement": "mice that came to have a normal blood glucose (<150 mg/dL)", "setting": "[4]; 200 IEQ islets transplanted, n=5 in each group", "result": "all of five mice"}]}]}
